Laboratory results taken from PMC6882468 (Journal of Enzyme Inhibition and Medicinal Chemistry, 2019).

How the values were obtained:
[1] = system: p38α; design: method as in PMID 17664068; settings: Figure 1; cited from earlier work
[2] = system: DNFB-induced mouse model of allergic contact dermatitis; experiment: DNFB-induced mouse model of allergic contact dermatitis (ear swelling); format: in vivo, Male ICR mice; settings: for Swelling degree / Inhibition (%) of ear swelling: mice, 5 mg/kg intragastric once a day for 6 days; for Swelling degree: ear slices weighed 24 h after DNFB challenge, Mean ± SD, n = 6; for Inhibition (%) of ear swelling: vs model group; for in vivo inhibitory activity, in words: p.o. 5 mg/kg, p < 0.01
Experimental: Male ICR mice (20 ± 2 g) were obtained from the Experimental Animal Centre of Anhui Medical University (Hefei, China). The mice reared in a pathogen-free setting (23 ± 2 °C, 55 ± 5% humidity) with free access to water and pelleted food throughout the experimental cycle. All experimental procedures performed in accordance with guide for the Care and Use of Laboratory Animals (National Research Council, 1996) and were approved by the Experimental Animal Ethics Committee of Anhui University of Chinese Medicine (Hefei, China). After 7 days acclimatisation, the mice were randomly divided into control group, ACD model group, dexamethasone positive control group and 20 compound groups, six in each group. The control group and the model group were given the same dose of the vehicle, the positive control group was given dexamethasone 0.5 mg/kg, and the test compound groups were given compound 5 mg/kg, all of which were given by intragastric administration and were administered once a day for 6 days. Except for the control group, the 50 µL of 1% DNFB (in acetone/olive oil 4:1) was administered to the stripped epidermis, and repeated the next day. After 6 days of drug treatment, 10 µL of 1% DNFB acetone olive oil solution was applied on both sides of the right ear to stimulate inflammation, and equivalent acetone olive oil solution was applied on the left ear for comparison. […] Calculation was carried out according to the following equations. Swelling degree (mg) = MR – ML Inhibitory rate of ear swelling (%)=((MR – ML) model – (MR – ML) treated)/(MR – ML) model ×100% MR=Average weight of the right ear slices;ML= Average weight of the left ear slices […] Dexamethasone (DEX) at a p.o. dose of 0.5 mg/kg was employed as the positive control. After the mice were sacrificed, the swelling degree and inhibition rate were calculated by weighing the same part of both ears.

[3] = biological target: T1, COX-1 (Ovis aries, UniProt P05979); experiment: COX-1 inhibition assay in vitro (COX Inhibitor Screening Kit, fluorometric); format: biochemical
T1 construct: purchased BioVision, Inc
T1 sequence (P05979 25-600): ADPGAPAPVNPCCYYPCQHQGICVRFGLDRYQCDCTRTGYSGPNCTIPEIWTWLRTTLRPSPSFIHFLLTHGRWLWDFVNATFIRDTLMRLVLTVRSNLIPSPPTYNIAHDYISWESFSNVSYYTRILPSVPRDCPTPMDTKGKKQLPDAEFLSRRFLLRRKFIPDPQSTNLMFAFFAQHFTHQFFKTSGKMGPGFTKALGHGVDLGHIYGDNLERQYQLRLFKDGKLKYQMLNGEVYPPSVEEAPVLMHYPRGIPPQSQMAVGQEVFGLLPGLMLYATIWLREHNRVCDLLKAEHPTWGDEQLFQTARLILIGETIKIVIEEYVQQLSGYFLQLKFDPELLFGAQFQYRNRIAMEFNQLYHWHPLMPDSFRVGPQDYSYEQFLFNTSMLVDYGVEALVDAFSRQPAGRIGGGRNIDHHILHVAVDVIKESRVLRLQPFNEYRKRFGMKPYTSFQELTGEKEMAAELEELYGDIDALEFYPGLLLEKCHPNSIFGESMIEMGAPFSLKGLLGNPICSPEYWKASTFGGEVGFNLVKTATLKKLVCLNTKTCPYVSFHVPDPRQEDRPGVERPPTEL
Experimental: Simply, different concentrations of the test compound solution were added to the mixed solution containing COX-1/COX-2 enzyme (10 µL) and Assay Buffer (960 µL, 0.1 M Tris-HCl pH 8.0 containing 5 µM EDTA and 2 µM phenol). […] The IC50 values were calculated as described above.

[4] = biological target: p38α MAPK (Homo sapiens, UniProt Q16539); experiment: p38α MAPK inhibition assay in vitro; format: biochemical; settings: triplicate, read-out: IC50 p38p
Experimental: In brief, after mixing the enzyme reagent with the sample, a reaction mixture containing 200 µM biotin-peptide substrate and 600 µM ATP (+100 µCi/mL γ-^32 P-ATP) was added to initiate the reaction. […] Part of the reaction solution was transferred to the well of a streptavidin-coated flash plate, washed in PBS containing 0.01% Tween and sealed. The average value of counts per minute for each group and the IC50 value was calculated.
The average fluorescence values of each well were calculated and recorded as RFU (Relative Fluorescence Unit) blank control (RFU blank), RFU 100% enzyme activity control (RFU enzyme), RFU positive drug control (RFU drug) and RFU test compound (RFU compound). The inhibition rate is calculated according to the following formula. Inhibition rate (%)= (RFU (enzyme) – RFU (compound/drug) […]) /(RFU (enzyme) – RFU (blank)) * 100%
The IC50 value of the test compound was calculated by the concentration-inhibition reaction curve and the assays were performed in triplicate.

[5] = biological target: T2, COX-2 (Homo sapiens, UniProt P35354); experiment: COX-2 inhibition assay in vitro (COX Inhibitor Screening Kit, fluorometric); settings: for SI (COX-1/COX-2): IC50 (COX-1)/IC50 (COX-2)
T2 sequence (P35354 18-604): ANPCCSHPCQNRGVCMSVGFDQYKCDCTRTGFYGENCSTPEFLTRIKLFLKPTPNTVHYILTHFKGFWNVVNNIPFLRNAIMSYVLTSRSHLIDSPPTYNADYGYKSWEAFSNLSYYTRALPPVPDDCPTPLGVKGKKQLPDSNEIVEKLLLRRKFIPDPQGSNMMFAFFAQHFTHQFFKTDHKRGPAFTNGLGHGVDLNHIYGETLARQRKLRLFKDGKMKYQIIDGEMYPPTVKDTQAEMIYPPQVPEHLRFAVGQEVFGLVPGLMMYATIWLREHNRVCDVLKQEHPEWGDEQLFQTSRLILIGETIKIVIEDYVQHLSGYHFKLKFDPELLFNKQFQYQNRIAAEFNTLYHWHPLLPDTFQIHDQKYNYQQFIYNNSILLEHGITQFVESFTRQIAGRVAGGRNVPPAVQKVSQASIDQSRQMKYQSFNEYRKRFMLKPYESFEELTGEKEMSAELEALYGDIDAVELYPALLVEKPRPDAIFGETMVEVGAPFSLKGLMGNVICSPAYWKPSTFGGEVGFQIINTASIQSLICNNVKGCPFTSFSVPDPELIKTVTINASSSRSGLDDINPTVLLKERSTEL

Sequence of p38α MAPK (Q16539 whole entry): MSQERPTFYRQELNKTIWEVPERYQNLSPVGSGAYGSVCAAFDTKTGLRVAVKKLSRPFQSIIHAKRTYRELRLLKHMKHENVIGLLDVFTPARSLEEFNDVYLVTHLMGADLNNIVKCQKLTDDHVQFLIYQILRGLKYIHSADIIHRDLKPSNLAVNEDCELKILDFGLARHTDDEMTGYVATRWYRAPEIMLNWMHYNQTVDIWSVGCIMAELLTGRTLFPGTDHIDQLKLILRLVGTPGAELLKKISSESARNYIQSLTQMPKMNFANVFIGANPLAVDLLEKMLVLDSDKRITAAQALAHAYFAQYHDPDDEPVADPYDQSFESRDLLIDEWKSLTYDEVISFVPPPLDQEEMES

Row | Structure (SMILES) | IC50 [1] [µM] | Swelling degree [2] [mg] | Inhibition (%) of ear swelling [2] [%] | in vivo inhibitory activity, in words [2] | IC50 [3] [µM] | IC50 [4] [µM] | IC50 [5] [µM] | SI (COX-1/COX-2) [5]
1 | COc1cc2[nH]ccc2cc1C(=O)N1CCN(Cc2ccccc2)CC1 [Compound 2] | 0.95 |  |  |  |  |  |  | 
2 | CC(=O)c1ccccc1C(=O)N1CCN(Cc2cccc([N+](=O)[O-])c2)CC1 [Compound 6f, 1–(2-(4–(3-Nitrobenzyl)piperazine-1-carbonyl)phenyl)ethan-1-one] |  | 9.9 ± 2.9 | 39.6 | significant inhibitory activity | 1.19 ± 0.08 | 3.41 ± 0.22 | 0.842 ± 0.062 | 1.41
3 | CC(=O)c1ccccc1C(=O)N1CCN(Cc2ccc(F)cc2)CC1 [Compound 6j, 1–(2-(4–(4-Fluorobenzyl)piperazine-1-carbonyl)phenyl)ethan-1-one] |  | 10.4 ± 3.1 | 36.6 | significant inhibitory activity | 4.23 ± 0.23 | 8.49 ± 0.57 | 0.022 ± 0.003 | 192.27
